Laboratory results: patent publication US8404690B2, “Piperazine-2-carboxamide derivatives” (Merck Serono SA, priority 2003, dated 2013)

Columns and labels:
[1] = target: T1, human Prostaglandin F2α receptor (Homo sapiens, UniProt P43088); assay: In vitro functional assay 2: inhibition of Prostaglandin F2α induced Ca2+-mobilization in HEK EBNA cells (FLIPR); type: cell-based; design: expressed in transfected cells; host or cells: HEK EBNA cells; conditions: HEK EBNA cells expressing the human Prostaglandin F2α receptor
Protocol: 2) In Vitro Functional Assay 2: Inhibition of Prostaglandin F2α Induced Ca^2+-Mobilization in HEK/EBNA-Cell Expressing the Prostaglandin F2α Receptor, as Measured by FLIPR® (Fluorimetric Imaging Plate Reader).
HEK EBNA cells were seeded at 60000 cells/well in a Poly-L-Lysine precoated black/white bottom 96 well plate. 24 hours later cells were loaded with […] Fluo-4 in DMEM-F12 without fetal calf serum for 1-2 hours at 37° C. For Prostaglandin F2α dose response or agonist activity measurement of compounds—after a wash with FLIPR buffer (10 mM Hepes, 145 mM NaCl, 5 mM KCl, 1 mM MgCl2, 10 mM glucose, pH 7.4)—cells were stimulated with increasing concentration of Prostaglandin F2α or test compounds of formulae (I), (II) and (III).
Calcium mobilisation was then measured on the FLIPR for 4 min. For IC50 determination of the molecules, increasing concentrations of test compounds were added to the cells 30 min prior to the washing step. After the wash with FLIPR buffer, increasing concentrations of test compounds were added to the cells in FLIPR buffer and calcium mobilisation was measured for 1 min. Then the cells were stimulated with a concentration of 2 times the EC50 of Prostaglandin F2α and calcium mobilisation was measured for 4 min.

[2] = target: T1, human Prostaglandin F2α receptor; assay: In vitro competition binding assay with Scintillation Proximity Assay (SPA); design: Human Prostaglandin F2α receptor (full-length cDNA) was subcloned into the pCEP4 (Invitrogen) vector; expressed in transfected cells; host or cells: HEK 293 EBNA cells (membrane preparation); conditions: Prostaglandin F2α as radioligand, membranes of HEK 293 EBNA cells, read-out: Binding affinity for human Prostaglandin F2α receptor Ki
From the text: In vitro competition binding assay with Scintillating Proximity Assay (SPA) (see Pharmaceutical Manufacturing International, 1992, p. 49-53 by Cook, N. D. et al)
This assay allows to determine the binding affinity of the test compounds of formula (II) for the human Prostaglandin F2α receptor
Human Prostaglandin F2α receptor (full-length cDNA) was subcloned into the pCEP4 (Invitrogen) vector and transfected together with the hygromycin resistance gene into HEK 293 EBNA cells by Calcium-phosphate co-precipitation method. Antibiotic resistant cells were grown under constant selection pressure in DMEM/F-12 medium supplemented with 2% fetal calf serum, 4 mM L-Glutamine and 8 ml/l Insulin-Transferrin-Selenium-mix (all Invitrogen) and 300 μg/ml hygromycin at 37° C. in a humidified atmosphere of 5% CO2 in air. At 48 h before harvesting, receptor expression was enhanced by adding 5 mM of Na-butyrate. Cells were washed twice with phosphate buffer saline, harvested and pelleted by centrifugation.
Cell pellet was lysed by Dounce homogenisation in 250 mM sucrose, 25 mM Tris-HCl pH 7.5, 10 mM MgCl2, 1 mM EDTA containing proteases inhibitors according to the manufacturer (Boehringer Mannheim) at 4° C. The lysate was centrifuged at 1000 g, 4° C. for 10 min and the supernatant was centrifuged at 160000 g, 4° C. for 60 min. […]
In vitro competition binding with Scintillation proximity assay (SPA) was performed in Corning NBS 96 wells plates. Briefly, 100 μl of binding buffer containing 15 to 30 μg of purified membranes, 4 mg/ml of wheat-germ agglutinin (WGA) SPA beads and 1 to 2 nM of ^3H PGF2-alpha (determined by Scatchard analysis) in 1% DMSO was incubated for 2 hours at room temperature. Non-specific binding was determined in the presence of 1 μM of non-radioactive Prostaglandin F2α. […] The radioactivity was counted on a Microbeta plate counter and the binding data were analysed using the iterative, non-linear, curve-fitting program, “Prism” (GraphPad Software, Inc).

[3] = target: T2, human Prostaglandin F2α receptor (hFP) (Homo sapiens, UniProt P43088); assay: In vitro functional assay 1: inhibition of Prostaglandin F2α induced IP3 synthesis in HEK/EBNA cells; type: cell-based; conditions: tested on human Prostaglandin F2α; 30 nM PGF2α stimulation; read-out: EC50 value, antagonism of Prostaglandin F2α-induced IP3-synthesis
T2 construct: expressed in transfected cells; host or cells: 293-EBNA cells
From the text: 1) In Vitro Functional Assay 1: Inhibition of Prostaglandin F2α Induced IP3 (Inositol Triphosphate) Synthesis in HEK/EBNA-Cells Expressing the Prostaglandin F2α Receptor
The interaction of Prostaglandin F2α with its receptor leads to IP3 synthesis, a second messenger for Ca^2+ release from sarcoplasmatic reticulum, involved in the process triggering uterine contractions. The present assay described hereinafter can be used to show the inhibition of the Prostaglandin F2α/Prostaglandin F2α receptor mediated IP3 synthesis by test compounds of formula (I).
293-EBNA cells and pCEP4 vector were purchased from Invitrogen; Fetal Bovine Serum from Cansera; Hygromycin B from Roche Molecular Biochemicals; DMEM-F12 medium, L-Glutamine from Life Technologies Inc.; [^3H] Inositol from Perkin Elmer Life Sciences; Prostaglandin F2α (PGF2α) from Sigma, AG1-X8 chromatography columns from BioRad, 96 well black/white plates from Corning Inc. […]
In the course of the three above mentioned experiments, the reaction was stopped by addition of 1 ml of stop solution (2.4% perchloric acid) for 10 min. […] The IP3 to be quantified were eluted with 3 ml elution buffer (1M ammonium formate, 0.1 M formic acid) and radioactivity was counted on a Beckman LS6000TA scintillation counter to measure the amount of phosphorylated [^3H] inositol.

[4] = tested on: Spontaneous uterine contractions in late-term pregnant rats; assay: In vivo assay: reduction of spontaneous uterine contractions in late-term pregnant rats; design: species or system rat; conditions: i.v. route (infusion over 10 minutes), dose of 3 mg/kg/min, anesthetised late-term pregnant Sprague Dawley rats, AUC of intra-luminal uterine pressure vs basal
From the text: 3) In Vivo Assay: Reduction of Uterine Contractile Activity in Rats
Spontaneous Uterine Contractions in Late-Term Pregnant Rats:
Late-term pregnant (19-21 days of gestation) Sprague Dawley female rats (Charles River, Calco, Italy) weighing 350-400 g were anesthetised with urethane (1.05 g/kg, i.p.) and placed on a homeothermic operating table. The trachea was isolated and cannulated with a suitable polyethylene (PE) tubing. A midline incision at the hypogastrium level was made, one pregnant uterine horn exposed and its tubal end closed (near the ovary) by a ligature with surgical silk. […]
The spontaneous contractile response of the uterus was quantified by evaluating the area under the curve (AUC) of the changes in the intra-luminal uterine pressure over time (by Chart V4.04 for Windows software, PowerLab AD Instruments, Castle Hill, Australia). The effect of the test compound on the spontaneous uterine contraction was evaluated as the percent variation of the AUC calculated in a 10-min interval following the administration of each dose of test compound as compared to the AUC in a 10-min interval before the administration of the first dose of test compound (basal value). When possible, a dose-response curve (of peak effect) was plotted and the relative ED50 value calculated (by S-Plus 2000 v. 4.6 statistical software, Mathsoft, Inc. Seattle, Wash., USA).

T1 sequence (P43088 whole entry): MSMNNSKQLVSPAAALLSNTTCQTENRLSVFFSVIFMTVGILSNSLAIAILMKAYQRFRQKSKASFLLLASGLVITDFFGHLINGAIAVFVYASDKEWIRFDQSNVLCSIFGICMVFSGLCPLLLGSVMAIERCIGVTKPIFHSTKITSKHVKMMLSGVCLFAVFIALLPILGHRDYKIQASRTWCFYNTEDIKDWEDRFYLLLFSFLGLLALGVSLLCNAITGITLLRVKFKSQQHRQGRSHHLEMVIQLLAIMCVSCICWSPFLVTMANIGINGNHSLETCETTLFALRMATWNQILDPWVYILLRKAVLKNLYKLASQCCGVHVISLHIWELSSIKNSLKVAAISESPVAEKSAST
T2 sequence (P43088 whole entry): as above

Row | IC50 [1] [nM] | Ki [2] [nM] | Molecule | other results
1 | 4750 | 1150 | CN(CC(O)c1ccccc1)C(=O)[C@H]1CN(C(=O)Nc2ccc(Oc3ccccc3)cc2)CCN1S(=O)(=O)c1ccccc1 (stereo partly drawn) [Example 16, (3R)—N˜3˜-(2-hydroxy-2-phenylethyl)-N˜3˜-methyl-N˜1˜-(4-phenoxy-phenyl)-4-(phenylsulfonyl)piperazine-1,3-dicarboxamide] | –
2 | – | – | C=CCNC(=O)[C@@H]1CN(S(=O)(=O)c2ccc(C(C)(C)C)cc2)CCN1S(=O)(=O)c1cccc2cccnc12 [Example 8, (2S)-4-[(4-tert-butylphenyl)sulfonyl]-N-Drop-2-enyl-1-(quinolin-8-ylsulfonyl)piperazine-2-carboxamide] | EC50 [3]: 24 nM
3 | – | – | C=CCNC(=O)[C@H]1CN(S(=O)(=O)c2ccc(C(C)(C)C)cc2)CCN1S(=O)(=O)c1cccc2cccnc12.Cl | melting point: 126 to 129 °C
4 | 495 | 816 | (3S)-4-(3-chlorobenzoyl)-N˜1˜-(3,4-dichlorophenyl)-N˜3˜-[(1S)-2,3-dihydro-1H-inden-1-yl]piperazine-1,3-dicarboxamide [Example 21] | –
5 | – | 125 | C=CCNC(=O)[C@@H]1CN(S(=O)(=O)c2ccc(C(C)(C)C)cc2)CCN1S(=O)(=O)c1cccc2cccnc12 [drawing 66, (2S)-4-[(4-tert-butylphenyl)-sulfonyl]-N-prop-2-enyl-1-(quinolin-8-yl-sulfonyl)piperazine-2-carboxamide] | –
6 | – | – | C=CCNC(=O)c1cc(C(C)(C)C)ccc1S(=O)(=O)c1cccc2cccnc12 [[5-(tert-butyl)-2-(8-quinolylsulfonyl)phenyl]-N-prop-2-enylcarboxamide] | inhibition of uterine contractions [4]: 56.1%
